Measured values: US9056865B2, “Pyridine-2-derivatives as smoothened receptor modulators” (Pfizer Inc., priority 2010, dated 2015)

Experiments:
human Smo = human Smo (Homo sapiens (Human), UniProt Q99835); assay: Smo radioligand competition binding assay
Summary of the method: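 Membranes from HEK293 cells expressing surface human Smo 181-781 (40 μg protein/well) incubated 2 h at room temperature with test compound and tritiated Smo antagonist (3 nM), pH 7.5 Tris buffer; filtration and scintillation counting. Non-specific binding defined with 30 μM cold antagonist; IC50 from four-parameter sigmoidal fit.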

Gli1 = assay: Down regulation of Smo targeted gene Gli1 in the brain, primary medulloblastoma model; assay type: in vivo; conditions: Ptch1+/-p53-/- medulloblastoma mice, 30 mg/kg once daily for 4 days oral gavage, 6 hours post last dose
Procedure: Down Regulation of Smo Targeted Gene Gli1 in the Brain by A-116
In this study, 6-week-old Ptch1+/−p53−/− primary medulloblastoma mice (n=3 per group) were treated with 30 mg/kg of A-116 or vehicle (0.5% methylcellulose (MC)) once daily for 4 days by oral gavage. On day 4, at 6 hours post last dose, mice were euthanized and tumor bearing cerebella were removed. Total RNA was extracted from the tumor tissue together with the cerebella using the RNeasy Mini Kit (Qiagen). Subsequently, cDNA was synthesized from the RNA using High Capacity cDNA Reverse Transcription Kit (Applied Biosystems) according to the protocol provided by the vendor. Quantitative real-time PCR analysis of Smo targeted gene Gli1 expression level was performed using RT-PCR ABI Prism 7900 sequence detection system (Applied Biosystems).

[1] = rat plasma protein binding; assay type: in vitro ADME; conditions: previously determined

Chain of human Smo (Q99835 181-787): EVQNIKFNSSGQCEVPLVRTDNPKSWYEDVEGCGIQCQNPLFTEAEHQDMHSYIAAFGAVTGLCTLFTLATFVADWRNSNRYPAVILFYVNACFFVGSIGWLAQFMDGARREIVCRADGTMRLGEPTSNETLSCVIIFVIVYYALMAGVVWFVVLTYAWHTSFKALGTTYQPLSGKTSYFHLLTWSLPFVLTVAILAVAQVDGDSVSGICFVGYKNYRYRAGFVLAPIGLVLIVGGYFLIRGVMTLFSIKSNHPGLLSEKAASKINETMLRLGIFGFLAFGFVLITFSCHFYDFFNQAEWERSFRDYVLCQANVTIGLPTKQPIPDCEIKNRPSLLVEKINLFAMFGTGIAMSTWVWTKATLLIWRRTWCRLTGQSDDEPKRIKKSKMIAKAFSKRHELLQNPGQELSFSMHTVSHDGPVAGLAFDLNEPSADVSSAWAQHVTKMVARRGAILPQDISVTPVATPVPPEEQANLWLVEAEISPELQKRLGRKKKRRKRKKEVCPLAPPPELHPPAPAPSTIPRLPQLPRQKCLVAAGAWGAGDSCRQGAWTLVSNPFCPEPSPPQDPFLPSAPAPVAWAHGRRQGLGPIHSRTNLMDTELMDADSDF

## Cc1cnc(-c2cc(N3CCN(C(=O)CCS(C)(=O)=O)CC3)ncc2Cl)c(C)c1 [Example A-116, 5′-chloro-3,5-dimethyl-2′-{4-[3-(methylsulfonyl)propanoyl]piperazin-1-yl}-2,4′-bipyridine]
Human Smo
  IC50: 6.8 nM
Human Smo; 0.05 μM test compound, read-out: Smo % inh. @ 0.05 μM
  inhibition at 0.05 µM: 101%
Gli1
  Gli1 level, % of vehicle control: 4.5±0.4%
[1]
  fraction unbound: 0.067
